Assay results published in patent US12037411B2, “Antibodies, and bispecific antigen-binding molecules that bind HER2 and/or APLP2, conjugates, and uses thereof” (Regeneron Pharmaceuticals, Inc., priority 2018, dated 2024).

Columns and labels:
HER2 in T47D cells = assay: HER2 turnover after cycloheximide treatment (western blot); format: cell-based, human; conditions: for Normalized HER2 expression: 50 ug/ml
Protocol: (§1) Additionally, the degradation rates of APLP2 and HER2 was tested on T47D cells. For the assay, T47D cells were plate at 10^6 cells/well in 6 well plates (Corning #3516). The cells were allowed to grow overnight at 37° C. in 5% CO2 in media consisting of RPMI 1640+10% FBS+1 mM sodium pyruvate+10 mM HEPES+10 ug/mL Insulin+5 mL Penicillin/Streptomycin/Glutamine. The following day, cells were treated with 50 ug/ml cycloheximide (Sigma #C4859-1ML) for 0, 0.5, 1.5, 2.5, 3.5, 4.5 and 5.5 hours. After the incubation, cells were washed once with 1 ml of DPBS/CM, and subsequently placed on ice and then the DPBS/CM was replaced with 800 uL of lysis buffer [1×RIPA (Boston Bioproducts, Cat #BP-116)+Protease inhibitor (Thermo Fisher, 1861280), cells were scraped and lysates were transferred to 1.5 ml Eppendorf tubes. Afterwards, the samples were sonicated with 25 pulses, 1 sec each at 50% power. Afterwards, the samples were frozen at −20° C. The samples were later thawed and 52 ul of each sample was mixed with 20 ul 4× Laemmli (Invitrogen, NP0007)+8 uL 10× Reducing agent (Invitrogen, Cat #NP0009)]. Samples were boiled at 95° C. for 10 minutes, centrifuged at 14000 RPM for 10 minutes at room temperature. 40 uL of each sample was loaded into three Wedged 4-20% TRIS-Glycine gels (Invitrogen, XPO4125BOX) and ran at 150V. The gels were then transferred into two PVDF membranes (ThermoFisher, IB24001) with iBlot2 dry blotting system (ThermoFisher, 1321001). The membranes were then blocked with 5% milk (BioRad, Cat #170-6404) in TBS for 3 hours at room temperature. Primary antibodies, rabbit-anti-HER2 antibody (Dako, Cat #A048529) or rabbit-anti-APLP2 antibody (abcam, Cat #ab140624) in 2.5% Milk+0.1% Tween (Sigma, Cat #P8074) in TRIS buffered saline (TBS; ThermoFisher, Cat #28376), were then added to the membranes and incubated at 4° C. overnight. The membranes were then washed 3 times with TBS for 5 minutes at room temperature. After, anti-rabbit-HRP antibodies (Promega, #W4011) and anti-actin-HRP antibody (Santa Cruz, Cat #sc-47779) in 2.5% Milk+0.1% Tween in TBS were added to the membranes and incubated at room temperature for 1 hour. The membranes were then washed 2 times with TBS+0.1% Tween at room temperature for 5 minutes, and then washed 2 more times with TBS room temperature for 5 minutes. The blot was then developed with ECL Detection Reagent (GE healthcare, Cat #RPN2106) and imaged with Azure C300 imager. Band quantification (mean fluorescence intensity minus background) was performed using ImageJ. Table 11 summarizes HER2, APLP, or T47D cells after cycloheximide (CHX) treatment normalized to cells having no CHX contact.

APLP2 in T47D cells = assay: APLP2 turnover after cycloheximide treatment (western blot); format: cell-based, human; conditions: for Normalized APLP2 expression: 50 ug/ml
Protocol: as §1

## C[C@@H]1C[C@@H]([C@H](O)CC2CC(=O)NC(=O)C2)C(=O)[C@@H](C)C1 [CHX, cycloheximide]
HER2 in T47D cells; CHX treatment 0.5 hours
  Normalized HER2 expression: 57%
HER2 in T47D cells; CHX treatment 1.5 hours
  Normalized HER2 expression: 78%
HER2 in T47D cells; CHX treatment 2.5 hours
  Normalized HER2 expression: 68%
HER2 in T47D cells; CHX treatment 3.5 hours
  Normalized HER2 expression: 64%
HER2 in T47D cells; CHX treatment 4.5 hours
  Normalized HER2 expression: 88%
HER2 in T47D cells; CHX treatment 5.5 hours
  Normalized HER2 expression: 78%
HER2 in T47D cells; after 5.5 hours
  HER2 degradation: 22%
APLP2 in T47D cells; CHX treatment 0.5 hours
  Normalized APLP2 expression: 41%
APLP2 in T47D cells; CHX treatment 1.5 hours
  Normalized APLP2 expression: 22%
APLP2 in T47D cells; CHX treatment 2.5 hours
  Normalized APLP2 expression: 9%
APLP2 in T47D cells; CHX treatment 3.5 hours
  Normalized APLP2 expression: 7%
APLP2 in T47D cells; CHX treatment 4.5 hours
  Normalized APLP2 expression: 8%
APLP2 in T47D cells; CHX treatment 5.5 hours
  Normalized APLP2 expression: 6%
APLP2 in T47D cells; after 5.5 hours
  APLP2 degradation: 94%
APLP2 in T47D cells; in 1.5 hours
  APLP2 degraded: Eighty-eight
